US20260184708A1, “PYRIDAZINONES AND METHODS OF USE THEREOF” (GFB (ABC), LLC, priority 2017, published 2026)
Where two headings read alike, the source gives them in different places. One block for each molecule: values may come before it.

Target: T1, TRPC5 (Homo sapiens, UniProt Q9UL62)
T1 construct: expressed in transfected cells; host or cells: HEK 293
T1 sequence (Q9UL62 1-973): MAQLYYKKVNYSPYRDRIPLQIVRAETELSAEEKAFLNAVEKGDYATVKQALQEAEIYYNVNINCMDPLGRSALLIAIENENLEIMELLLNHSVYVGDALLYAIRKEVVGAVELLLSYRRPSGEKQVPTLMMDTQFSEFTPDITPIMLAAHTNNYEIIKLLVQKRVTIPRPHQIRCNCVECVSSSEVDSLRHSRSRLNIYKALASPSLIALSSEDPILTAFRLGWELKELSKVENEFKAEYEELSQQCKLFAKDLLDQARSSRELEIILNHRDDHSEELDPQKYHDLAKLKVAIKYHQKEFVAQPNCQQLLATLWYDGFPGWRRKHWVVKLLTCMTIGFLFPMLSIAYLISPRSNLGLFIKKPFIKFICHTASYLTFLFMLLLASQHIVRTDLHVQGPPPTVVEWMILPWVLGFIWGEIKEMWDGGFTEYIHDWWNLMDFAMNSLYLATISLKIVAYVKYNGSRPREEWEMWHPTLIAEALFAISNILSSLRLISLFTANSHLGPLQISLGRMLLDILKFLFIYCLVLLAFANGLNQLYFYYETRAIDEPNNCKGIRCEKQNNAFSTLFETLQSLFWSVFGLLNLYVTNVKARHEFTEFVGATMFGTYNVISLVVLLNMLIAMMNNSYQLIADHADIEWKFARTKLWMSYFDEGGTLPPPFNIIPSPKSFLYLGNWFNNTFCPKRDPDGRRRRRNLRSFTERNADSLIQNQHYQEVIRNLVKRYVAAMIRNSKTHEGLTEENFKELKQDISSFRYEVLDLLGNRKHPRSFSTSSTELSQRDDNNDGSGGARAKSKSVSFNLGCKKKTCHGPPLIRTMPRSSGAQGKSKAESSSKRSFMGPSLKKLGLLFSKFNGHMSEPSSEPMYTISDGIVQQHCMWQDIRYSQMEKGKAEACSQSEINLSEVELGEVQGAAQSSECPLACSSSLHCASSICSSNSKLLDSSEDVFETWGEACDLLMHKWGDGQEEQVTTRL
Experiment: TRPC5 automated patch clamp assay (Qpatch), current block after rosiglitazone stimulation
Type: cell-based
Settings: HEK293 cells overexpressing TRPC5
Summary of the method: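 HEK 293 cells expressing human TRPC5, whole-cell QPatch recording; 1 μM buffered free internal Ca2+, external pH 7.4. Ramps −100 to +100 mV over 300 ms every 10 s from −60 mV holding; channel activated by Rosiglitazone (30 uM) after ≥60 s control. IC50 from Hill fit.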

[1] = Table 3, rosiglitazone stimulation, 80 mV, read-out: TRPC5_QP_ XC50_80
[2] = Table 3, rosiglitazone stimulation, 100 mV, read-out: TRPC5_QP_ XC50_100
[3] = Table 4, rosiglitazone stimulation, 80 mV, read-out: TRPC5_QP_ XC50_80
[4] = Table 4, rosiglitazone stimulation, 100 mV, read-out: TRPC5_QP_ XC50_100
[5] = Table 5, rosiglitazone stimulation, 80 mV, read-out: TRPC5_QP_ XC50_80
[6] = Table 5, rosiglitazone stimulation, 100 mV, read-out: TRPC5_QP_ XC50_100
[7] = Table 6, read-out: TRPC5-QPatch IC50

- IC50 [1]: 10000 to 500000 nM
- IC50 [2]: 10000 to 500000 nM
Structure (SMILES): Cc1ccccc1CN1CCN(c2cn[nH]c(=O)c2Br)C(C)C1 (stereo not drawn) [drawing 650]

- IC50 [2]: 10000 to 500000 nM
Structure (SMILES): Cc1ccccc1CN1CCN(c2cn[nH]c(=O)c2Br)CC1C (stereo not drawn) [drawing 651]

- IC50 [1]: 0.01 to 1000 nM
- IC50 [2]: 0.01 to 1000 nM
Structure (SMILES): Cc1ccccc1CN1CCN(c2cn[nH]c(=O)c2Cl)CC1=O [drawing 664]

- IC50 [1]: 0.01 to 1000 nM
- IC50 [2]: 0.01 to 1000 nM
Structure (SMILES): O=C1CN(c2cn[nH]c(=O)c2Br)CCN1Cc1cccc2ccccc12 [drawing 665]

- IC50 [1]: 10000 to 500000 nM
- IC50 [2]: 10000 to 500000 nM
Structure (SMILES): CN(C)C(=O)CN1CCN(c2cn[nH]c(=O)c2Cl)CC1 [drawing 673]

- IC50 [1]: 1000 to 5000 nM
- IC50 [2]: 1000 to 5000 nM
Structure (SMILES): O=c1[nH]ncc(N2CCN(Cc3ccccc3Cl)CC2)c1Cl [drawing 676]

- IC50 [1]: 1000 to 5000 nM
- IC50 [2]: 1000 to 5000 nM
Structure (SMILES): Cc1cc(F)ccc1CN1CCN(c2cn[nH]c(=O)c2Cl)CC1 [drawing 679]

- IC50 [1]: 1000 to 5000 nM
- IC50 [2]: 1000 to 5000 nM
Structure (SMILES): O=C1CN(c2cn[nH]c(=O)c2Cl)CCN1Cc1ccc(F)cc1Cl [drawing 682]

- IC50 [1]: 1000 to 5000 nM
- IC50 [2]: 1000 to 5000 nM
Structure (SMILES): O=C1CN(c2cn[nH]c(=O)c2Cl)CCN1Cc1ccc(F)cc1F [drawing 686]

- IC50 [1]: 0.01 to 1000 nM
- IC50 [2]: 0.01 to 1000 nM
Structure (SMILES): O=C1CN(c2cn[nH]c(=O)c2Cl)CCN1Cc1ccccc1OC(F)(F)F [drawing 689]

- IC50 [1]: 1000 to 5000 nM
- IC50 [2]: 1000 to 5000 nM
Structure (SMILES): O=c1[nH]ncc(N2CCN(Cc3ccccc3C(F)(F)F)CC2)c1Cl [drawing 694]

- IC50 [1]: 10000 to 500000 nM
- IC50 [2]: 10000 to 500000 nM
Structure (SMILES): Cc1ccccc1CN1CCN(c2cn[nH]c(=O)c2CCC(C)C)CC1=O [drawing 695]

- IC50 [3]: 1000 to 5000 nM
- IC50 [4]: 1000 to 5000 nM
Structure (SMILES): O=c1[nH]ncc(N2CCN(Cc3ccccc3C(F)(F)F)CC2)c1Cl [drawing 699]

- IC50 [3]: 10000 to 500000 nM
- IC50 [4]: 10000 to 500000 nM
Structure (SMILES): Cc1ccccc1CN1CCN(c2cn[nH]c(=O)c2CCC(C)C)CC1=O [drawing 700]

- IC50 [3]: 10000 to 500000 nM
- IC50 [4]: 10000 to 500000 nM
Structure (SMILES): CN(C)C(=O)CN1CCN(c2cn[nH]c(=O)c2Cl)CC1 [drawing 708]

- IC50 [3]: 1000 to 5000 nM
- IC50 [4]: 1000 to 5000 nM
Structure (SMILES): C[C@@H]1CN(Cc2ccccc2C(F)(F)F)CCN1c1cn[nH]c(=O)c1Cl [drawing 716]

- IC50 [3]: 0.01 to 1000 nM
- IC50 [4]: 0.01 to 1000 nM
Structure (SMILES): Cc1ncccc1CN1CCN(c2cn[nH]c(=O)c2Cl)CC1 [drawing 719]

- IC50 [3]: 1000 to 5000 nM
- IC50 [4]: 1000 to 5000 nM
Structure (SMILES): Cc1cc(Cl)ccc1CN1CCN(c2cn[nH]c(=O)c2Cl)CC1=O [drawing 737]

- IC50 [3]: 0.01 to 1000 nM
- IC50 [4]: 0.01 to 1000 nM
Structure (SMILES): Cc1ccccc1[C@H](C)N1CCN(c2cn[nH]c(=O)c2Cl)CC1=O [drawing 743]

- IC50 [5]: 1000 to 5000 nM
- IC50 [6]: 1000 to 5000 nM
Structure (SMILES): COc1cc(F)ccc1CN1CCN(c2cn[nH]c(=O)c2Cl)CC1=O [drawing 772]

- IC50 [5]: 0.01 to 1000 nM
- IC50 [6]: 0.01 to 1000 nM
Structure (SMILES): Cc1ccccc1Cn1cnc2c1CCN(c1cn[nH]c(=O)c1Cl)C2 [drawing 830]

- IC50 [5]: 1000 to 5000 nM
- IC50 [6]: 1000 to 5000 nM
Structure (SMILES): O=c1[nH]ncc(N2CCc3c(ncn3Cc3ccccc3)C2)c1Cl [drawing 831]

- IC50 [5]: 1000 to 5000 nM
- IC50 [6]: 1000 to 5000 nM
Structure (SMILES): C[C@H](c1ccccc1)n1cnc2c1CCN(c1cn[nH]c(=O)c1Cl)C2 [drawing 833]

- IC50 [7]: 5000 to 10000 nM
Structure (SMILES): O=c1[nH]ncc(N2CCc3c(ncn3Cc3ccccc3C(F)F)C2)c1Cl [drawing 839]

- IC50 [7]: 0.01 to 1000 nM
Structure (SMILES): CCc1cc(F)ccc1Cn1cnc2c1CCN(c1cn[nH]c(=O)c1Cl)C2 [drawing 889]

- IC50 [7]: 1000 to 5000 nM
Structure (SMILES): N#Cc1c(N2CCc3c(nnn3Cc3ccccc3C(F)(F)F)C2)cn[nH]c1=O [drawing 891]
